The source of these data is ChEMBL document CHEMBL3853306, “Antidepressant-like effects and mechanisms of flavonoids and related analogues” (Eur J Med Chem, 2016).

For orientation: IC50 means the concentration needed to halve the response being measured. One may read the inhibition in vivo as the change of the read-out against control, counted positive when it falls.

In brackets after ≈: the same amount, converted by molar mass.

Assay [1] in a line: Antidepressant- like activity in mouse assessed as duration of immobility time at 10 mg/kg, ip by forced swimming test (reference value: 141.5 +/- 10.9 secs). The format is functional, organism-based.
A short description of assay [2]: Antidepressant- like activity in mouse assessed as duration of immobility time at 10 mg/kg, ip by tail suspension test (reference value: 130.5 +/- 9.6 secs). It counts as functional, organism-based.
Assay [3] in a line: Antidepressant- like activity in mouse assessed as decrease in immobility time at 30 mg/kg, po by forced swimming test relative to control. The format is functional, organism-based. On the set-up: scale not given: the % may be the effect or the level left.
A short description of assay [4]: Antidepressant- like activity in mouse assessed as decrease in immobility time at 30 mg/kg, po by tail suspension test relative to control. The format is functional, organism-based. More on the design: scale not given: the % may be the effect or the level left.
Assay [5] is described as follows: Antidepressant- like activity in Balb/c mouse assessed as immobility time at 10 mg/kg, ip administered 30 mins prior to testing by forced swimming test (reference value: 123.3 +/- 10.7 secs). The format is functional, organism-based.
Assay [6] can be described thus: Antidepressant- like activity in Balb/c mouse assessed as immobility time at 10 mg/kg, ip administered 30 mins prior to testing by tail suspension test (reference value: 130.5 +/- 9.6 secs). It counts as functional, organism-based.
The nature of assay [7]: Antidepressant activity in albino mouse assessed as immobility time at 10 mg/kg, ip administered 30 mins prior to testing by forced swimming test (reference value: 141 +/- 14.2 secs). The format is functional, organism-based.
Assay [8] in a line: Antidepressant activity in albino mouse assessed as decrease in immobility time at 10 mg/kg, ip administered 30 mins prior to testing by forced swimming test relative to control. It counts as functional, organism-based. On the set-up: scale not given: the % may be the effect or the level left.
Assay [9] can be described thus: Inhibition of MAO in mouse brain mitochondrial fraction using kynuramine as substrate assessed as formation of 4-hydroxyquinoline by fluorescence spectrometric method. The format is tissue-based.
For a further assay, the system named is Mus musculus. The experiment in a line: In vivo inhibition of MAOA in ICR mouse brain at 20 mg/kg administered via oral gavage using kynuramine dihydrobromide as substrate preincubated for 15 mins followed by substrate addition measured after 30 mins in presence of MAOB inhibitor deprenyl by fluorescence spectrometric method. The format is functional.
Assay [10] can be described thus: Antidepressant- like activity in Balb/c mouse assessed as immobility time at 1 mg/kg, ip administered 30 mins prior to testing by forced swimming test (reference value: 123.3 +/- 10.7 secs). The format is functional, organism-based.
Assay [11] can be described thus: Antidepressant- like activity in Balb/c mouse assessed as immobility time at 5 mg/kg, ip administered 30 mins prior to testing by forced swimming test (reference value: 123.3 +/- 10.7 secs). It counts as functional, organism-based.
Assay [12] in a line: Antidepressant- like activity in Balb/c mouse assessed as immobility time at 1 mg/kg, ip administered 30 mins prior to testing by tail suspension test (reference value: 130.5 +/- 9.6 secs). It counts as functional, organism-based.
Assay [13] is described as follows: Antidepressant- like activity in Balb/c mouse assessed as immobility time at 5 mg/kg, ip administered 30 mins prior to testing by tail suspension test (reference value: 130.5 +/- 9.6 secs). The format is functional, organism-based.

Take `COc1ccc(/C=C/C(=O)c2ccc(OCC=C(C)C)cc2O)cc1`: the TIME in [1] was found to be 0.0112 h; in assay [2], 0.0141 h. For the same molecule, the Activity in assay [3] was determined as 71.4%; in assay [4] it was 61%.

As to `CNCCC(Oc1ccc(C(F)(F)F)cc1)c1ccccc1` (centres undefined), the TIME in assay [1] worked out at 0.0174 h; in assay [2], 0.0112 h; in assay [5], 0.0229 h; in assay [6] it was 0.021 h; in [7], 0.0195 h.

Take `O=C1CC(c2ccc(Cl)cc2Cl)Oc2cc(O)ccc21` (centres undefined): in assay [8], the Activity was 30.4%.

As for `O=C1c2c(O)cc(O)cc2O[C@H](c2ccc(O)c(O)c2)[C@H]1O` [(+)-TAXIFOLIN], in assay [9], the IC50 was determined as 153.1 µg/mL (≈ 503 µM).

Turning to `O=c1c(O)c(-c2ccc(O)c(O)c2)oc2cc(O)ccc12` [FISETIN], in the assay with Mus musculus, the inhibition in vivo at 20 mg/kg was 14.7%.

`O=C1c2c(O)cc(O)cc2O[C@H](c2ccc(O)cc2)[C@H]1O` [DIHYDROKAEMPFEROL]: the IC50 in [9] was found to be 154.7 µg/mL (≈ 537 µM).

For `COc1cc(C2CC(=O)c3ccc(O)cc3O2)ccc1O` (centres undefined), the TIME in assay [7] came out at 0.0256 h. Further, the Activity in assay [8] came out at 34.6%.

As to `O=C(O)[C@H]1O[C@@H](Oc2cc(O)c3c(=O)cc(-c4ccc(O)cc4)oc3c2)[C@H](O)[C@@H](O)[C@@H]1O`, the IC50 in assay [9] was determined as 81.7 µg/mL (≈ 183 µM).

`CC(C)=CCOc1ccc(C(=O)/C=C/c2c(Cl)cccc2Cl)c(O)c1`: the TIME stood at 0.0116 h in [1] and 0.0135 h in [2].

For the molecule `CC(C)=CCOc1ccc(C(=O)/C=C/c2cccc(Br)c2)c(O)c1`, the results for the TIME in [1] and in assay [2] were 0.0102 h and 0.0118 h, respectively. Also, the Activity was determined as 74.1% in [3] and 67.6% in assay [4].

With `O=c1cc(-c2ccc(O)c(O)c2)oc2cc(O[C@@H]3O[C@H](CO)[C@@H](O)[C@H](O)[C@H]3O)cc(O)c12` [GALUTEOLIN], the IC50 in [9] amounted to 118.6 µg/mL (≈ 265 µM).

Take `CC(C)=CCOc1ccc(C(=O)/C=C/c2ccc3ccccc3c2)c(O)c1`: the TIME worked out at 0.0254 h in assay [10]; 0.022 h in assay [11]; 0.0257 h in assay [5]; 0.0295 h in assay [12]; 0.0217 h in assay [13]; 0.0241 h in [6].
